# US20220008298A1, “OLEOGELS IN UV ABSORBER COMPOSITIONS” (BASF SE, priority 2011, published 2022)
# Assays:
# [1] = interfacial tension of the oil to water; assay type: physicochemical
# Source text: (§1) The smaller the interfacial tension of the oil towards water, the more polar it is. This is in line with the values of Log Poctanol/water.
# [2] = Log P octanol/water of the oil; assay type: physicochemical
# Source text: as §1
"Interf. tension to water, γ [1]",Log Poctanol/water [2],SMILES
14.3 mN/m,3.9,CCCCOC(=O)CCCCC(=O)OCCCC [Dibutyl Adipate]
29.1 mN/m,6.8,CCCCC(CC)COC(=O)OCC(CC)CCCC (stereo not shown) [Diethylhexyl Carbonate]
